Values joined by “and” are separate entries in the source; they are usually repeats but may differ in a detail not shown here. Identical values can stand only once.
What was measured:
[1] = target: T1, Adrenergic receptor alpha-1 (Rattus norvegicus, UniProt P15823+P23944+P43140); assay: In vitro radioligand binding assay on adrenaline Alpha-1 adrenergic receptor of rat cortex using [3H]- prazosin; format: tissue-based
T1 sequence (P15823 whole entry): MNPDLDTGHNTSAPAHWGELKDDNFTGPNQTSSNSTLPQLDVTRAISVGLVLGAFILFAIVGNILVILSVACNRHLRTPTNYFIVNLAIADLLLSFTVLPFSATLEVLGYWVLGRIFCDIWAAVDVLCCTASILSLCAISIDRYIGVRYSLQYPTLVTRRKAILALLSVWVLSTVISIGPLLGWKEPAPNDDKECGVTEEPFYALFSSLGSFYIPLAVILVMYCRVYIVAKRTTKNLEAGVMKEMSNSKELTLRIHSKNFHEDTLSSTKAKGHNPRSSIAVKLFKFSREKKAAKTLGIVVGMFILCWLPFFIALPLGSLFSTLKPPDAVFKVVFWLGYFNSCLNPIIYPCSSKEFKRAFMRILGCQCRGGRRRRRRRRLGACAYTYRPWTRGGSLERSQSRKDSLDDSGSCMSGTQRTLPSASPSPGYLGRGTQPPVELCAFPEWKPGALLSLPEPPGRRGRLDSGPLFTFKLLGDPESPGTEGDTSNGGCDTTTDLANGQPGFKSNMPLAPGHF
T1 sequence (P23944 whole entry): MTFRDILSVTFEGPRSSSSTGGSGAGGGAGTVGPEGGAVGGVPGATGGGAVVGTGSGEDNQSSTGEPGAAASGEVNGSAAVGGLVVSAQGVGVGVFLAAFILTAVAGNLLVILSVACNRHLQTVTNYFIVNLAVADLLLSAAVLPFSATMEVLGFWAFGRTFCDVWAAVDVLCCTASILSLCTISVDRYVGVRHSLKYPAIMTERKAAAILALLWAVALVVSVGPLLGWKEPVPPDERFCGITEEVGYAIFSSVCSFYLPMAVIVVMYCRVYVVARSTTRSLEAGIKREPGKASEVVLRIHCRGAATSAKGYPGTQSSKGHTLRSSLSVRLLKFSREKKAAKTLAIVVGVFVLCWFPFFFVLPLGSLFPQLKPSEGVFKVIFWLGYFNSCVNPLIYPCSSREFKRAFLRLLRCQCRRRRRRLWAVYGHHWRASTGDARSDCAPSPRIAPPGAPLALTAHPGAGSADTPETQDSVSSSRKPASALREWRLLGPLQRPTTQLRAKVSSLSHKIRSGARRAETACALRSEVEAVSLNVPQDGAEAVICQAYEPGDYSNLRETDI
T1 sequence (P43140 whole entry): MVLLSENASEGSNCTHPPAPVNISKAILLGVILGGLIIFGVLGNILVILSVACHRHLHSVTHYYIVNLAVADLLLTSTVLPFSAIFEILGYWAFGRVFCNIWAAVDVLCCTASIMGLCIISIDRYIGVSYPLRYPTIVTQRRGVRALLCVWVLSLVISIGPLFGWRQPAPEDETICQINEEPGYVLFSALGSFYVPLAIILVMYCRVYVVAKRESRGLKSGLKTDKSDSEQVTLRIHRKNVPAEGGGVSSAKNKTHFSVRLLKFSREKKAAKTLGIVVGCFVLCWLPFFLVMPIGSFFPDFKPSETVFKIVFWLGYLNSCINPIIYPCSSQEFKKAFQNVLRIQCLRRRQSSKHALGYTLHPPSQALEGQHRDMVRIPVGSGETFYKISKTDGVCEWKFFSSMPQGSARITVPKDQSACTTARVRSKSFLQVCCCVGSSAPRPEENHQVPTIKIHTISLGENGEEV

[2] = target: T2, 5-hydroxytryptamine receptor 1A (Rattus norvegicus, UniProt P19327); assay: Displacement of [3H]8-OH-DPAT from rat hippocampal 5-hydroxytryptamine 1A receptor; format: tissue-based, Hippocampus
T2 sequence (P19327 whole entry): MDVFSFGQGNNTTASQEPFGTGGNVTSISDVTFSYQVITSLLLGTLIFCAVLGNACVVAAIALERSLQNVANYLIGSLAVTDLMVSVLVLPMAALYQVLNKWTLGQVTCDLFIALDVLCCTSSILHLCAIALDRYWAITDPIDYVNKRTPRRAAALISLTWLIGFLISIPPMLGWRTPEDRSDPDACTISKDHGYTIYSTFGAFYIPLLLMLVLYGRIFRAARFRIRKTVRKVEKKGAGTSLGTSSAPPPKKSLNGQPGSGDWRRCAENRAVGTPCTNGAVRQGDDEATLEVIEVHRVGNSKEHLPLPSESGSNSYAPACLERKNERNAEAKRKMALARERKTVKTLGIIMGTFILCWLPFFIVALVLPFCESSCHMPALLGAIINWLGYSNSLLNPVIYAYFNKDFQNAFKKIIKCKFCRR

D(2) dopamine receptor = D(2) dopamine receptor (Rattus norvegicus, UniProt P61169); assay: In vitro radioligand binding assay on Dopamine receptor D2 of rat striatum using [3H]- spiperone; format: tissue-based
D(2) dopamine receptor, sequence (P61169 whole entry): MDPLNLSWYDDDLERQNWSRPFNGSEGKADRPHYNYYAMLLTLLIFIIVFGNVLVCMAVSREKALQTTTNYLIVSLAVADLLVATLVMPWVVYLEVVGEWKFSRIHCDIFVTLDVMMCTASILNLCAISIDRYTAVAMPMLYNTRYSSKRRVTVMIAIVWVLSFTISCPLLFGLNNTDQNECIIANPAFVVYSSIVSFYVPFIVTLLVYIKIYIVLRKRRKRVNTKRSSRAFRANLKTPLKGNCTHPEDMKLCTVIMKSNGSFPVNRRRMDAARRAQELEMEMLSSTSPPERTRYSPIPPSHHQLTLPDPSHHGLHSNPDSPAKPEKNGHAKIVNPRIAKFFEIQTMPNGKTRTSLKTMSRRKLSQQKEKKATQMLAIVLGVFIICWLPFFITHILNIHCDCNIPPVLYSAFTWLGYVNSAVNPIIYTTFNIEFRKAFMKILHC

[3] = target: T2, 5-hydroxytryptamine receptor 1A; assay: In vitro radioligand binding assay on 5-hydroxytryptamine 1A receptor using [3H]8-OH-DPAT in rat hippocampus; format: tissue-based

Row | Structure (SMILES) | Ki [1] | Ki [2] | Ki (D(2) dopamine receptor) | IC50 [1] | IC50 [3]
1 | COc1ccc(CCCCNCCOc2c(F)ccc3c2OCCC3)cc1 | 71.5 nM | 0.35 nM | 21.3 nM | – | –
2 | CCCN(CCC)[C@H]1CCc2c(F)ccc(O)c2C1 | 6080 nM | 46 nM | 614 nM and 400 nM | – | –
3 | COc1ccc(CCCCNCCOc2cc(O)cc3c2OCCC3)cc1 | 98.4 nM | 0.271 nM | 1.76 nM | – | –
4 | COc1ccc(CCCCNCCOc2cc(F)cc3c2OCCC3)cc1 | 2.71 nM | 0.221 nM | 0.259 nM | – | –
5 | COc1ccc(CCCCNCCOc2cc(OC)cc3c2OCCC3)cc1 | 27.9 nM | 3.07 nM | 1.75 nM | – | –
6 | O=C1C2C(C(=O)N1CCCCN1CCN(c3ncccn3)CC1)[C@H]1CC[C@@H]2C1 (some centres undefined) | 1260 nM | 21.5 nM and 25 nM | – | – | –

The remaining compounds from weak to strong by Ki [2], led by results:

Row | Ki [1] | Ki [2] | Ki (D(2) dopamine receptor) | IC50 [1] | IC50 [3] | Structure (SMILES)
7 | 897 nM | 27.9 nM | 176 nM | 1490 nM | 33.9 nM | COc1ccccc1N1CCN(C[C@@H](C(=O)NC(C)(C)C)c2ccccc2)CC1
8 | 14.3 nM | 1.29 nM | 0.489 nM | – | – | COc1ccc(CCCCNCCOc2cc(Cl)cc3c2OCCC3)cc1
9 | 35.1 nM | 0.779 nM | 1.79 nM | – | – | COc1ccc(CCCCNCCOc2cc(C)cc3c2OCCC3)cc1
10 | 5.19 nM | 0.118 nM | 0.581 nM | – | – | COc1ccc(CCCCNCCOc2cccc3c2OCCC3)cc1
11 | 8.77 nM | 0.051 nM | 3.53 nM | – | – | COc1ccc(CCCCNCCOc2ccc(F)c3c2OCCC3)cc1
